Positions of bridges follow the written chain, without caps; N, C: chain ends. Non-standard residues stand in square brackets, D forms with d. Residues, ends and D or L forms follow the SMILES beside them. Phe(4-COOH) = N[C@@H](Cc1ccc(C(=O)O)cc1)C(=O)O; Trp(7-aza) = N[C@@H](Cc1c[nH]c2ncccc12)C(=O)O; Gly(N(CH2)3COOH) = O=C(O)CCCNCC(=O)O; NMeF = CN[C@@H](Cc1ccccc1)C(=O)O; Gly(N(CH2)3NH2) = NCCCNCC(=O)O; NMeA = CN[C@@H](C)C(=O)O; Dap = NC[C@H](N)C(=O)O; Sar = CNCC(=O)O

Experiment [1] addresses T1, Myostatin (Homo sapiens, UniProt O14793).
T1 construct: active myostatin (also called mature myostatin) is a homodimer consisting of two C-terminal growth factor domains; purchased R&D systems 788-G8/CF
T1 sequence (O14793 267-375): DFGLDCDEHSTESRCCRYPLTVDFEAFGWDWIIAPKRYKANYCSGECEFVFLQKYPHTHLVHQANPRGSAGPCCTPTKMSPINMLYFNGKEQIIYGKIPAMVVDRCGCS
Description: HepG2 reporter gene assay, Evaluation Procedure (2): 2-concentrations assay, myostatin inhibition. Format: cell-based. Conditions: Myostatin 10 ng/mL, HepG2; for inhibition at 0.03 µM: peptide 30nM, read-out: Myostatin Inhibition 30nM; for inhibition at 0.1 µM: peptide 100nM, read-out: Myostatin Inhibition 100nM. The protocol: (§1) The pGL3(CAGA)12-luc plasmid, namely a pGL3 vector (E1751, Promega) having a luciferase gene inserted downstream of a promoter sequence with 12 CAGA repeats attached, was transfected into HepG2 cell line (HB-8065, ATCC). The culture of HepG2 cell line (HB-8065, ATCC) was performed as in the Evaluation Procedure (1).
(§2) Myostatin (788-G8/CF, R&D systems) or GDF-11 (1958-GD-G8/CF, R&D systems) was added at a final concentration of 10 ng/mL. […] At this time, blank wells, in which neither myostatin, GDF-11, nor each peptide was added, were also prepared and incubated in a CO2 incubator (37°C, 5% CO2) for 20 to 24 hours.
(§3) The medium containing the cells was removed, and a mixture containing PBS (14190144, Thermo) and a chromogenic substrate One-Glo Luciferase Assay System (E6120, Promega) at a ratio of 1:1 was added to each well at 100 µL/well. This was stirred with a plate shaker for 5 min and transferred to a 384-well plate (3570, Corning) at a volume of 20 µL/well.
(§4) The plate was centrifuged at 1,000 × g for 1 min and the luminescence signal (700 nm luminescence) was measured using a plate reader (Envision 2104, PerkinElmer). Based on the measurement results, the inhibition rate at each peptide concentration was calculated. […]

In experiment [2] the target is T2, GDF-11 (Homo sapiens, UniProt O95390).
T2 construct: purchased R&D systems 1958-GD-G8/CF
T2 sequence (O95390 299-407): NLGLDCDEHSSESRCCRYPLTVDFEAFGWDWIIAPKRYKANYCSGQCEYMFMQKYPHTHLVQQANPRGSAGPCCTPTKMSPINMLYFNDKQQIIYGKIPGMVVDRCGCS
Description: HepG2 reporter gene assay, Evaluation Procedure (2): 2-concentrations assay, GDF-11 inhibition. Format: cell-based. To be noted: GDF-11 10 ng/mL; for inhibition at 0.03 µM: HepG2, peptide 30nM, read-out: GDF11 Inhibition 30nM; for inhibition at 0.1 µM: HepG2, peptide 100nM, read-out: GDF11 Inhibition 100nM. The protocol: as §1, §2, §3, §4
(A reporter such as luciferase makes a cellular process visible.)

Take `CC[C@H](C)[C@@H]1NC(=O)[C@H](Cc2ccccc2)N(C)C(=O)[C@H](Cc2ccc(O)cc2)NC(=O)[C@H](Cc2c[nH]c3ccccc23)NC(=O)[C@H](CCCNC(=N)N)NC(=O)[C@H](C)NC(=O)CSC[C@@H](C(=O)N[C@@H](CN)C(N)=O)NC(=O)[C@H](Cc2ccccc2)N(C)C(=O)[C@H](C)N(C)C(=O)[C@H](CC(C)C)NC(=O)[C@H](Cc2ccccc2)N(C)C(=O)[C@H](CCCNC(=N)N)NC(=O)[C@H](Cc2ccc(O)cc2)NC(=O)[C@H](Cc2ccc(O)cc2)NC(=O)CN(C)C1=O` [Myostatin_000099_16Dap] ({CH2CO}-ARWY[NMeF]I[Sar]YYR[NMeF]L[NMeA][NMeF]C[Dap]-NH2; thioether N-15): the inhibition (as a rule, the share of the control response that was lost under treatment) at 0.03 µM in experiment [1] was 56%; in experiment [2] it was 0%. Also, the inhibition at 0.1 µM was 83% in experiment [1] and 11% in experiment [2].

As to `CC[C@H](C)[C@@H]1NC(=O)[C@H](Cc2ccccc2)N(C)C(=O)[C@H](Cc2ccc(O)cc2)NC(=O)[C@H](Cc2c[nH]c3ccccc23)NC(=O)[C@H](CCCNC(=N)N)NC(=O)[C@H](C)NC(=O)CSC[C@@H](C(=O)N[C@H](CCC(=O)O)C(N)=O)NC(=O)[C@H](Cc2ccccc2)N(C)C(=O)[C@H](C)N(C)C(=O)[C@H](CC(C)C)NC(=O)[C@H](Cc2ccccc2)N(C)C(=O)[C@H](CCCNC(=N)N)NC(=O)[C@H](Cc2ccc(O)cc2)NC(=O)[C@H](Cc2ccc(O)cc2)NC(=O)CN(C)C1=O` [Myostatin_000099_16de] ({CH2CO}-ARWY[NMeF]I[Sar]YYR[NMeF]L[NMeA][NMeF]C[dE]-NH2; thioether N-15), the values for the inhibition at 0.03 µM in experiment [1] and in experiment [2] were 50% and 0%, respectively. Further, the inhibition at 0.1 µM stood at 82% in experiment [1] and 3% in experiment [2].

On to `CC[C@H](C)[C@@H]1NC(=O)[C@H](Cc2ccccc2)N(C)C(=O)[C@H](Cc2ccc(O)cc2)NC(=O)[C@H](Cc2c[nH]c3ccccc23)NC(=O)[C@H](C)NC(=O)CN(CCCC(=O)O)C(=O)CSC[C@H](C(=O)O)NC(=O)[C@H](Cc2ccccc2)N(C)C(=O)[C@H](C)N(C)C(=O)[C@H](CC(C)C)NC(=O)[C@H](Cc2ccccc2)N(C)C(=O)[C@H](CCCNC(=N)N)NC(=O)[C@H](Cc2ccc(O)cc2)NC(=O)[C@H](Cc2ccc(C(=O)O)cc2)NC(=O)CN(C)C1=O` [Myostatin_99_Variant_06] ({CH2CO}-[Gly(N(CH2)3COOH)]AWY[NMeF]I[Sar][Phe(4-COOH)]YR[NMeF]L[NMeA][NMeF][dC]-OH; thioether N-15), for which, in experiment [1], the inhibition at 0.03 µM is 40% and the inhibition at 0.1 µM is 65%. In experiment [2], the inhibition at 0.03 µM amounted to 0% and the inhibition at 0.1 µM came out at 0%.

`CC[C@H](C)[C@@H]1NC(=O)[C@H](Cc2ccccc2)N(C)C(=O)[C@H](Cc2ccc(O)cc2)NC(=O)[C@H](Cc2c[nH]c3ccccc23)NC(=O)[C@H](CN)NC(=O)[C@H](C)NC(=O)CSC[C@H](C(=O)N[C@@H](CN)C(N)=O)NC(=O)[C@H](Cc2ccccc2)N(C)C(=O)[C@H](C)N(C)C(=O)[C@H](CC(C)C)NC(=O)[C@H](Cc2ccccc2)N(C)C(=O)[C@H](CCCNC(=N)N)NC(=O)[C@H](Cc2ccc(O)cc2)NC(=O)[C@H](Cc2ccc(O)cc2)NC(=O)CN(C)C1=O` [Myostatin_99_Variant_08] ({CH2CO}-A[Dap]WY[NMeF]I[Sar]YYR[NMeF]L[NMeA][NMeF][dC][Dap]-NH2; thioether N-15): in experiment [1], the inhibition at 0.03 µM worked out at 72% and the inhibition at 0.1 µM came out at 92%. Further, in experiment [2], the inhibition at 0.03 µM was found to be 7% and the inhibition at 0.1 µM was found to be 22%.

For `CC[C@H](C)[C@@H]1NC(=O)[C@H](Cc2ccccc2)N(C)C(=O)[C@H](Cc2ccc(O)cc2)NC(=O)[C@H](Cc2c[nH]c3ccccc23)NC(=O)[C@H](C)NC(=O)CN(CCCN)C(=O)CSC[C@H](C(=O)N[C@@H](CN)C(N)=O)NC(=O)[C@H](Cc2ccccc2)N(C)C(=O)[C@H](C)N(C)C(=O)[C@H](CC(C)C)NC(=O)[C@H](Cc2ccccc2)N(C)C(=O)[C@H](CCCNC(=N)N)NC(=O)[C@H](Cc2ccc(O)cc2)NC(=O)[C@H](Cc2ccc(O)cc2)NC(=O)CN(C)C1=O` [Myostatin_99_Variant_09] ({CH2CO}-[Gly(N(CH2)3NH2)]AWY[NMeF]I[Sar]YYR[NMeF]L[NMeA][NMeF][dC][Dap]-NH2; thioether N-15), in experiment [1], the inhibition at 0.03 µM stood at 65% and the inhibition at 0.1 µM came to 90%. Moreover, in experiment [2], the inhibition at 0.03 µM was 0% and the inhibition at 0.1 µM worked out at 11%.

Take `CC[C@H](C)[C@@H]1NC(=O)[C@H](Cc2ccccc2)N(C)C(=O)[C@H](Cc2ccc(O)cc2)NC(=O)[C@H](Cc2c[nH]c3ccccc23)NC(=O)[C@H](CN)NC(=O)[C@H](C)NC(=O)CSC[C@H](C(=O)N[C@@H](CN)C(=O)N[C@@H](CN)C(N)=O)NC(=O)[C@H](Cc2ccccc2)N(C)C(=O)[C@H](C)N(C)C(=O)[C@H](CC(C)C)NC(=O)[C@H](Cc2ccccc2)N(C)C(=O)[C@H](CCCNC(=N)N)NC(=O)[C@H](Cc2ccc(O)cc2)NC(=O)[C@H](Cc2ccc(O)cc2)NC(=O)CN(C)C1=O` [Myostatin_99_Variant_10] ({CH2CO}-A[Dap]WY[NMeF]I[Sar]YYR[NMeF]L[NMeA][NMeF][dC][Dap][Dap]-NH2; thioether N-15): in experiment [1], the inhibition at 0.03 µM was 60% and the inhibition at 0.1 µM turned out to be 89%. In experiment [2], the inhibition at 0.03 µM worked out at 11% and the inhibition at 0.1 µM is 29%.

For `CC[C@H](C)[C@@H]1NC(=O)[C@H](Cc2ccccc2)N(C)C(=O)[C@H](Cc2ccc(O)cc2)NC(=O)[C@H](Cc2c[nH]c3ccccc23)NC(=O)[C@H](C)NC(=O)[C@H](C)NC(=O)CSC[C@H](C(=O)N[C@@H](CN)C(N)=O)NC(=O)[C@H](Cc2ccccc2)N(C)C(=O)[C@H](C)N(C)C(=O)[C@H](CC(C)C)NC(=O)[C@H](Cc2ccccc2)N(C)C(=O)[C@H](CCCNC(=N)N)NC(=O)[C@H](Cc2ccc(O)cc2)NC(=O)[C@H](CCCCN)NC(=O)CN(C)C1=O` [Myostatin_99_Variant_11] ({CH2CO}-AAWY[NMeF]I[Sar]KYR[NMeF]L[NMeA][NMeF][dC][Dap]-NH2; thioether N-15), the inhibition at 0.03 µM in experiment [1] came out at 75%; in experiment [2], 22%. Besides, the inhibition at 0.1 µM was 94% in experiment [1] and 26% in experiment [2].

For the compound `CC[C@H](C)[C@@H]1NC(=O)[C@H](Cc2ccccc2)N(C)C(=O)[C@H](Cc2ccc(O)cc2)NC(=O)[C@H](Cc2c[nH]c3ccccc23)NC(=O)[C@H](CN)NC(=O)CN(CCCN)C(=O)CSC[C@H](C(N)=O)NC(=O)[C@H](Cc2ccccc2)N(C)C(=O)[C@H](C)N(C)C(=O)[C@H](CC(C)C)NC(=O)[C@H](Cc2ccccc2)N(C)C(=O)[C@H](CCCNC(=N)N)NC(=O)[C@H](Cc2ccc(O)cc2)NC(=O)[C@H](Cc2ccc(O)cc2)NC(=O)CN(C)C1=O` [Myostatin_99_Variant_13] ({CH2CO}-[Gly(N(CH2)3NH2)][Dap]WY[NMeF]I[Sar]YYR[NMeF]L[NMeA][NMeF][dC]-NH2; thioether N-15), in experiment [1], the inhibition at 0.03 µM came out at 51% and the inhibition at 0.1 µM amounted to 76%. Also, in experiment [2], the inhibition at 0.03 µM stood at 8% and the inhibition at 0.1 µM stood at 12%.

Take `CC[C@H](C)[C@@H]1NC(=O)[C@H](Cc2ccccc2)N(C)C(=O)[C@H](Cc2ccc(O)cc2)NC(=O)[C@H](Cc2c[nH]c3ncccc23)NC(=O)[C@H](C)NC(=O)CN(CCCC(=O)O)C(=O)CSC[C@H](C(N)=O)NC(=O)[C@H](Cc2ccccc2)N(C)C(=O)[C@H](C)N(C)C(=O)[C@H](CC(C)C)NC(=O)[C@H](Cc2ccccc2)N(C)C(=O)[C@H](CCCNC(=N)N)NC(=O)[C@H](Cc2ccc(C(=O)O)cc2)NC(=O)[C@H](Cc2ccc(O)cc2)NC(=O)CN(C)C1=O` [Myostatin_99_Variant_14] ({CH2CO}-[Gly(N(CH2)3COOH)]A[Trp(7-aza)]Y[NMeF]I[Sar]Y[Phe(4-COOH)]R[NMeF]L[NMeA][NMeF][dC]-NH2; thioether N-15): in experiment [1], the inhibition at 0.03 µM is 41% and the inhibition at 0.1 µM stood at 73%. For the same compound, in experiment [2], the inhibition at 0.03 µM stood at 0% and the inhibition at 0.1 µM is 1%.
